Experimental data taken from patent US20260364186A1, “Chemical Conjugates, Compositions, and Methods of Preparation and Use Thereof” (Transfection Holdings Limited, priority 2022, published 2026).
Entries after “also recorded” stand apart in the source; their conditions may differ.

What was measured:
Assay type in all cases: cell-based, human
[1] = system: NZM11 (BRAF V600E) melanoma cells; assay: Time course of uptake by FACS (Example 5); settings: 200 nM; for uptake / intensities, in words: NZM11, time course
Method: FIG. 5A: Time course of uptake for 124, 125, 131, 132 conjugate compounds. Tests were performed using 200 nM each conjugate and 5, 30, or 60 minute incubation with melanoma cell line NZM11 (BRAF V600E mutant metastatic melanoma). Mean fluorescent intensities (MFI), n=300 mean±SD. The cells were sorted by FACS.
FIG. 5B: Time course of uptake for 124 and 3-azido BODIPY FL. Tests were performed using 200 nM each compound and 1 or 3 hour incubation with melanoma cell line NZM11 (BRAF V600E mutant metastatic melanoma). Mean fluorescent intensities (MFI). n=2000-3000 mean±SD. The cells were sorted by FACS.
Materials and methods: NZM11 cells were suspended at […] dispensed into 96 well plates and left to settle for 48 hours. 10 μL of 10 mM stock solutions in DMSO from the conjugates coupled to BODIPY were diluted with HBSS to afford 400 nM solution. Then, 400 nM compounds and DMSO solutions were diluted 1:1 with MEMα media to afford 200 nM solutions. After 48 hours the media was removed from the 96 well plates and 200 μL of 200 nM conjugates solutions dispensed to each well (in duplicate) and incubated for 5 minutes, 30 minutes and 60 minutes at 37 °C (for the first test) or 60 minutes and 3 hours (for the second test). After indicated incubation time, the media was removed and cells washed with PBS. 100 μL of TrypLE trypsin (ThermoFisher Scientific) were added to each well and incubated for 6.5 minutes at 37 °C after which, 100 μL of MEMα media were added and samples were sorted through FACS biosort. FACS results output represented the mean of the fluorescence intensities (in arbitrary units) measured for cells sorted in every sample. Uptake rate was calculated by the equation: Uptake rate=(MFI2−MFI1)/(T2−T1)
whereby: MFI=mean fluorescent intensities; T=time (at which time the sample was taken); Uptake rate units: fluorescence intensities units per minute.

[2] = system: Jurkat cells; assay: FACS uptake of BODIPY FL conjugates in Jurkat cells (Example 3); settings: 200 nM
Method: FIG. 3B: Conjugate compounds coupled to BODIPY FL were tested for uptake using 200 nM each conjugate and 5 minute incubation with immortalized T lymphocyte cell line, Jurkat cells. Mean fluorescent intensities (MFI). 1,000 cells sorted by FACS. Bars represent mean±SD. Results represent a single experiment done in duplicate.
Materials and methods: Jurkat cells have been previously shown to be defective in the expression of two lipid phosphatases, PTEN (phosphatase and tensin homologue) and SHIP (SH2-domain-containing inositol polyphosphate 5′ phosphatase). The biological implications of SHIP deficiency in T cells remain under evaluation, but the loss of PTEN leads to activation of the phosphatidylinositol 3-kinase (PI3K)-signalling pathway. See Abraham and Weiss, 2004. This activation of PI3K protein is also on NZM40 melanoma cell line, and represents a key mutation for its sustained proliferation. See Silva et al., 2017. For these experiments, Jurkat cells were diluted on RPMI media (supplemented with 10% FBS+1% penicillin-streptomycin) to afford 400 cells/μL. 2 μL of 100 μM stock solutions in DMSO from 138 and pantothenic acid/pantothenic acid derivatives coupled to BODIPY were diluted with 998 μL of RPMI media (supplemented with 10% FBS+1% penicillin-streptomycin) to afford 200 nM solution. 100,000 cells were dispensed to Eppendorf tubes, centrifuged for 1.5 min at 5000 rcf and the supernatant was removed. The cells then were incubated with 500 μL of solutions at 200 nM for 4.5 min and 37 °C. After the incubation time, cells were centrifuged for 1.5 minutes at 5000 rcf. Supernatant was removed and cell pellet re-suspended in 200 μL fresh RPMI media, transferred to 96 well-plate and run on FACS machine, approximately 1,000 cells analysed.

[3] = system: NZM40 (NRAS Q16H) melanoma cells; assay: FACS uptake of BODIPY FL conjugates, 200 nM, 5 min (Example 2)
Method: FIG. 2. Conjugate compounds coupled to BODIPY FL were tested for uptake using 200 nM each conjugate and 5 minute incubation with melanoma cell line NZM11 (BRAF V600E mutant metastatic melanoma), melanoma cell line NZM40 (NRAS Q16H mutant metastatic melanoma) and melanoma cell line NZM9 (BRAF and NRAS wildtype metastatic melanoma). Mean fluorescent intensities (MFI). 2,000 cells (NZM11), 1,000 cells (NZM40) and 500-1,000 cells (NZM9). Cells were sorted by FACS. Bars represent mean±SD. Results were from a single experiment done in triplicate.
NZM40 is an adherent cell line which was originally derived from a metastatic melanoma from a patient, in 2004. This human metastatic melanoma is identified with code CBA-1381 from Cell bank Australia. […] Ras is a superfamily of proteins implicated in cell growth, survival and differentiation. NRAS (neuroblastoma rat sarcoma) was the first oncogene recognized in melanoma and mutations in NRAS account for 20% of all melanomas. NRAS mutations primarily occur at position 61 and involve amino acid change from glutamine (Q) to arginine (R), lysine (K), leucine (L) or histidine (H). These mutations block NRAS into a GTP-bound state damaging its GTPase activity (FIG. 1). Patients are usually older (>55 years) with previous UV exposure. See Garcia-Alverez et al., 2021.
For screening, NZM11, NZM40 and NZM9 cells were suspended at […] dispensed into 96 well plates and left to settle for 48 hours. Then, 10 μL of 10 mM stock solutions in DMSO for the conjugates were diluted with HBSS to afford 400 nM solution. Next, 400 nM compounds and DMSO solutions were diluted 1:1 with MEMα media to afford 200 nM solutions. After 48 hours the media was removed from the 96 well plates and 200 μL of 200 nM conjugates solutions dispensed to each well (in triplicate) and incubated for 5 minutes at 37 °C. After 5 minutes, the media was removed and cells washed with PBS. Then, 100 μL of TrypLE trypsin (ThermoFisher Scientific) were added to each well and incubated for 5 minutes at 37 °C after which, 100 μL of MEMα media were added and samples were sorted through FACS biosort. The FACS results output were represented as the mean of the fluorescence intensities (in arbitrary units) measured for cells sorted in every sample.

Row | SMILES | time at which highest intensities were reached ([1]; NZM11) | times lower uptake rate, as compared to 124 ([1]; NZM11) | uptake / targeting [2] | uptake (fluorescence intensities) [3] | uptake / intensities, in words [1] | lower intensities at 3 hour than 60 minute incubation ([1]; NZM11) | time after which uptake presents saturation ([1]; NZM11) | uptake rate ([1]; after five minutes) | uptake rate ([1]; at 30 minutes) | uptake rate ([1]; at 60 minutes) | intensities compared to 125 and 127 ([2]; vs 125 and 127) | higher fluorescence intensities compared to enantiomer 126 [3]
1 | CC1=CC(C)=[N+]2C1=Cc1ccc(CCCn3cc(CCNC(=O)/C=C/NC(=O)[C@@H]4OC(C)(C)OCC4(C)C)nn3)n1[B-]2(F)F [Compound 125, (R,E)-N-((((3-[4,4-difluoro-5,7-dimethyl-4-bora-3a,4a-diaza-s-indacene-3-yl]propyl)-1H-1,2,3-triazol-4-yl)eth-ylamino)-3-oxoprop-1-enyl)-2,2,5,5-tetramethyl-1,3-dioxane-4-carboxamide] | 60 min | 7 times | showed targeting | selective uptake; also recorded: significant uptake |  |  |  |  |  |  |  | 
2 | CC1=CC(C)=[N+]2C1=Cc1ccc(CCCn3cc(CCNC(=O)/C=C\NC(=O)[C@H]4OC(C)(C)OCC4(C)C)nn3)n1[B-]2(F)F [Compound 131, (Z)—N-((((3-[4,4-Difluoro-5,7-dimethyl-4-bora-3a,4a-diaza-s-indacene-3-yl]propyl)-1H-1,2,3-triazol-4-yl)ethylamino)-3-oxoprop-1-enyl)-2,2,5,5-tetramethyl-1,3-dioxane-4-carboxamide] |  |  | showed targeting | showed selectivity | non-significant intensities |  |  |  |  |  |  | 
3 | CC1=CC(C)=[N+]2C1=Cc1ccc(CCCn3cc(CCNC(=O)/C=C/NC(=O)[C@H](O)C(C)(C)CO)nn3)n1[B-]2(F)F [Compound 124] | 60 min |  | highest uptake | highest intensities; also recorded: best targeting activity | outstanding uptake; also recorded: rapid at the first minutes of incubation | 4% | 60 min | 45 units per minute | 23 units per minute | 1 units per minute | two times higher | 13 times
